Experimental data as given in patent US20060222595A1, “Nanoparticles for therapeutic and diagnostic applications” (priority 2005, published 2006).

Assay: Saturation concentration of agents on gold nanoparticles (UV-Visible absorbance)
Format: physicochemical
Method: The individual saturation concentrations of a monoclonal anti-VEGF antibody agent and a gemcitabine agent to gold nanoparticles were determined in the following manner. Eight tubes containing 1 ml of gold nanoparticles each were incubated with increasing concentrations of the anti-VEGF antibody for 30 minutes, followed by an aggregation assay involving incubation with 100 μl of a 10% NaCl solution. Approximately 15 min. after the addition of the NaCl solution, the UV-Visible spectra were recorded using a Shimadzu model system (UV2401 PC), and the saturation concentration of the antibody was determined.
The attachment of gemcitabine to the gold nanoparticles and the determination of its saturation concentration were performed similarly.
The saturation concentration of gemcitabine on the gold nanoparticles was determined in a similar manner. Gold nanoparticles were incubated with different concentrations of gemcitabine for 30 min., and their UV-Visible spectra were recorded. […] This shift in Ymax value with a concomitant decrease in absorbance and a broadening of the spectra may be attributed to the aggregation of gold nanoparticles upon the addition of gemcitabine beyond the 20 μg limit. […]

**Q.** For `Nc1ccn([C@@H]2O[C@H](CO)[C@@H](O)C2(F)F)c(=O)n1` [gemcitabine], which “saturation concentration of gemcitabine on gold nanoparticles (absorbance maximum)” value (30 min incubation, UV-Visible spectra) is on record?
**A.** Its value is 20 µg.

**Q.** For `NCCc1ccc(O)c(O)c1` [dopamine], which “saturation concentration of dopamine on gold nanoparticles” value (surface plasmon resonance band, UV-visible spectroscopy) is on record?
**A.** The value was ~30 µg/mL.
